The structures appear in SMILES notation.

One assay has as its system HeLa. The experiment in a line: Proliferation assay (crystal violet), HeLa. The following applies: Homo sapiens, HeLa, 96 h, HeLa cells; 4 days incubation; crystal violet staining; read-out: IC50 inhibition of proliferation, HeLa. The class given is cell-based. Put shortly:
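Cells plated at 1000-5000/well with 10% FCS, treated after 24 h with compound at 0.001-10 μM (0.5% DMSO) for 4 days. Glutaraldehyde-fixed, crystal violet-stained, A595 normalised to zero-point plate (0%) and untreated cells (100%); IC50 by 4-parameter fit.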

The subject of assay [1] is human cervical tumor cell line HeLa (ATCC CCL-2). The experiment in a line: SAC-Formation - Nocodazole-Induced Assay. It is filed as cell-based. The settings on record: Homo sapiens, HeLa, 24 h, HeLa cells, nocodazole 0.1 μg/ml together with test compound, decrease of mitotic cells (phospho-histone H3 Ser10). An outline of the steps:
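HeLa cells, plated overnight, were treated 24 h at 37 °C with nocodazole (0.1 μg/ml final) plus test compound (0.005–20 μM, 0.5% DMSO) added at the same time. After fixation, anti-phospho-histone H3 Ser10 and Hoechst staining gave the mitotic cell fraction by imaging. Values came from four-parameter Hill fits.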

In the case of `Cc1nsc(Nc2cnc3ccccc3n2)c1C(=O)Nc1ccc(NCCNC(=O)OC(C)(C)C)nc1` [Example 244, tert-butyl (2-{[5-({[3-methyl-5-(quinoxalin-2-ylamino)-1,2-thiazol-4-yl]carbonyl}amino)pyridin-2-yl]amino}ethyl)carbamate], the IC50 was found to be 4.2 µM in the assay on HeLa and 3.7 µM in assay [1].
The corresponding values for `CNC(=O)c1ccc(NC(=O)c2c(C)nsc2Nc2ccc(C#N)cn2)cc1F` [Example 208, 5-[(5-cyanopyridin-2-yl)amino]-N-[3-fluoro-4-(methylcarbamoyl)phenyl]-3-methyl-1,2-thiazole-4-carboxamide] are 6 µM and 0.33 µM.
Taken in the same sequence, the figures for `Cc1nsc(Nc2cncc(C(F)(F)F)n2)c1C(=O)Nc1ccc(OCCN)nc1` [Example 196, N-[6-(2-aminoethoxy)pyridin-3-yl]-3-methyl-5-{[6-(trifluoromethyl)pyrazin-2-yl]amino}-1,2-thiazole-4-carboxamide] were greater than 10 µM and 1.3 µM.
Consider `Cc1nsc(Nc2cnc3ccccc3n2)c1C(=O)Nc1ccc(NCC2CCN(C(=O)OC(C)(C)C)CC2)nc1` [Example 238, tert-butyl 4-({[5-({[3-methyl-5-(quinoxalin-2-ylamino)-1,2-thiazol-4-yl]carbonyl}amino)pyridin-2-yl]amino}methyl)piperidine-1-carboxylate], for which the IC50 in the assay with HeLa worked out at 8.1 µM; in assay [1], 3.5 µM.
In the case of `Cc1nsc(Nc2cncc(C(F)(F)F)n2)c1C(=O)Nc1ccc(OC2CCN(CC(F)(F)F)CC2)nc1` [Example 16, 3-Methyl-N-(6-{[1-(2,2,2-trifluoroethyl)piperidin-4-yl]oxy}pyridin-3-yl)-5-{[6-(trifluoromethyl)pyrazin-2-yl]amino}-1,2-thiazole-4-carboxamide], the IC50 in the assay on HeLa stood at 0.69 µM; in assay [1], 0.041 µM.
Taken in the same sequence, the figures for `Cc1nsc(Nc2cnc3ccccc3n2)c1C(=O)Nc1ccc(OCCC(=O)OC(C)(C)C)nc1` [Example 198, tert-butyl 3-{[5-({[3-methyl-5-(quinoxalin-2-ylamino)-1,2-thiazol-4-yl]carbonyl}amino)pyridin-2-yl]oxy}propanoate] were 6.7 µM and 1 µM.
The corresponding values for `CCN(CC)CCNC(=O)c1cccc(NC(=O)c2c(C)nsc2Nc2cc(C#N)ccn2)c1` [Example 174, 5-[(4-cyanopyridin-2-yl)amino]-N-(3-{[2-(diethylamino)ethyl]carbamoyl}phenyl)-3-methyl-1,2-thiazole-4-carboxamide] are greater than 10 µM and 5.8 µM.
Taken in the same sequence, the figures for `Cc1nsc(Nc2cnc(C(F)(F)F)cn2)c1C(=O)Nc1cccc(S(C)(=O)=O)c1` [Example 195, 3-methyl-N-[3-(methylsulfonyl)phenyl]-5-{[5-(trifluoromethyl)pyrazin-2-yl]amino}-1,2-thiazole-4-carboxamide] were 3.1 µM and 0.66 µM.
With `Cc1nsc(Nc2ccc(C#N)cn2)c1C(=O)Nc1ccc(OCCC(=O)OC(C)(C)C)nc1` [Example 199, tert-butyl 3-({5-[({5-[(5-cyanopyridin-2-yl)amino]-3-methyl-1,2-thiazol-4-yl}carbonyl)amino]pyridin-2-yl}oxy)propanoate], the values for the IC50 (with HeLa; in assay [1]) were 8.7 µM and 0.95 µM, respectively.
Taken in the same sequence, the figures for `Cc1nsc(Nc2cnc3ccccc3n2)c1C(=O)Nc1ccc(NC2CCCN(C(=O)OC(C)(C)C)C2)nc1` (stereo not shown) [Example 241, tert-butyl 3-{[5-({[3-methyl-5-(quinoxalin-2-ylamino)-1,2-thiazol-4-yl]carbonyl}amino)pyridin-2-yl]amino}piperidine-1-carboxylate] were 9.3 µM and 1.4 µM.
The corresponding values for `Cc1nsc(Nc2cnc(C(F)(F)F)cn2)c1C(=O)Nc1ccc(C(=O)NCCN2CCCC(F)C2)cc1` (stereo not shown) [Example 213, N-(4-{[2-(3-fluoropiperidin-1-yl)ethyl]carbamoyl}phenyl)-3-methyl-5-{[5-(trifluoromethyl)pyrazin-2-yl]amino}-1,2-thiazole-4-carboxamide] are 2.5 µM and 2.7 µM.
The corresponding values for `CC(=O)N1CCC(Oc2ccc(NC(=O)c3c(C)nsc3Nc3cncc(C(F)(F)F)n3)cn2)CC1` [Example 17, N-{6-[(1-Acetylpiperidin-4-yl)oxy]pyridin-3-yl}-3-methyl-5-{[6-(trifluoromethyl)-pyrazin-2-yl]amino}-1,2-thiazole-4-carboxamide] are 2.4 µM and 0.21 µM.
For `Cc1nsc(Nc2cnc(C(F)(F)F)cn2)c1C(=O)Nc1ccc(F)c(OC2CCN(C(=O)OC(C)(C)C)CC2)c1` [Example 229, tert-butyl 4-(2-fluoro-5-{[(3-methyl-5-{[5-(trifluoromethyl)pyrazin-2-yl]amino}-1,2-thiazol-4-yl)carbonyl]amino}phenoxy)piperidine-1-carboxylate], the IC50 came to 0.19 µM in the assay on HeLa and 0.14 µM in assay [1].
Taken in the same sequence, the figures for `Cc1nsc(Nc2cnc3ccccc3n2)c1C(=O)Nc1ccc(Oc2ccc(SC(F)(F)F)cc2)nc1` [Example 233, 3-methyl-5-(quinoxalin-2-ylamino)-N-(6-{4-[(trifluoromethyl)sulfanyl]phenoxy}pyridin-3-yl)-1,2-thiazole-4-carboxamide] were greater than 10 µM and 4.7 µM.
Regarding `Cc1nsc(Nc2cncc(C(F)(F)F)n2)c1C(=O)Nc1ccc(C(=O)NCCN2CCCC(F)(F)C2)cc1` [Example 214, N-(4-{[2-(3,3-difluoropiperidin-1-yl)ethyl]carbamoyl}phenyl)-3-methyl-5-{[6-(trifluoromethyl)pyrazin-2-yl]amino}-1,2-thiazole-4-carboxamide], the IC50 with HeLa was determined as 4.6 µM; in assay [1], 0.32 µM.
Taken in the same sequence, the figures for `Cc1nsc(Nc2ccc(C#N)cn2)c1C(=O)Nc1cccc(C(=O)OC(C)(C)C)c1` [Example 240, tert-butyl 3-[({5-[(5-cyanopyridin-2-yl)amino]-3-methyl-1,2-thiazol-4-yl}carbonyl)amino]benzoate] were 0.75 µM and 0.13 µM.
Taken in the same sequence, the figures for `CNS(=O)(=O)c1ccc(NC(=O)c2c(C)nsc2Nc2cncc(C(F)(F)F)n2)cc1` [Example 211, 3-methyl-N-[4-(methylsulfamoyl)phenyl]-5-{[6-(trifluoromethyl)pyrazin-2-yl]amino}-1,2-thiazole-4-carboxamide] were 9.9 µM and 0.096 µM.
Taken in the same sequence, the figures for `Cc1nsc(Nc2cnc3ccccc3n2)c1C(=O)Nc1ccccc1S(C)(=O)=O` [Example 188, 3-methyl-N-[2-(methylsulfonyl)phenyl]-5-(quinoxalin-2-ylamino)-1,2-thiazole-4-carboxamide] were greater than 10 µM and 0.23 µM.
With `Cc1nsc(Nc2cnc3ccccc3n2)c1C(=O)Nc1ccc(C(=O)OC(C)(C)C)cc1` [Example 181, tert-butyl 4-({[3-methyl-5-(quinoxalin-2-ylamino)-1,2-thiazol-4-yl]carbonyl}amino)benzoate], the IC50 was 0.98 µM with HeLa and 0.26 µM in assay [1].
The corresponding values for `Cc1nsc(Nc2cnc(C(F)(F)F)cn2)c1C(=O)Nc1ccc(OCCN)nc1` [Example 197, N-[6-(2-aminoethoxy)pyridin-3-yl]-3-methyl-5-{[5-(trifluoromethyl)pyrazin-2-yl]amino}-1,2-thiazole-4-carboxamide] are 7.5 µM and 1 µM.
Turning to `CNS(=O)(=O)c1ccc(NC(=O)c2c(C)nsc2Nc2cnc(C(F)(F)F)cn2)cc1` [Example 212, 3-methyl-N-[4-(methylsulfamoyl)phenyl]-5-{[5-(trifluoromethyl)pyrazin-2-yl]amino}-1,2-thiazole-4-carboxamide], the results for the IC50 (in the assay on HeLa; in assay [1]) were greater than 10 µM and 2 µM, respectively.
The corresponding values for `Cc1nsc(Nc2cnc3ccccc3n2)c1C(=O)Nc1ccc(C(=O)O)cc1` [Example 187, 4-({[3-methyl-5-(quinoxalin-2-ylamino)-1,2-thiazol-4-yl]carbonyl}amino)benzoic acid] are greater than 10 µM and 2.2 µM.
The corresponding values for `Cc1nsc(Nc2cnc3ccccc3n2)c1C(=O)Nc1ccc(NC2CCN(C(=O)OC(C)(C)C)CC2)nc1` [Example 234, tert-butyl 4-{[5-({[3-methyl-5-(quinoxalin-2-ylamino)-1,2-thiazol-4-yl]carbonyl}amino)pyridin-2-yl]amino}piperidine-1-carboxylate] are 9.6 µM and 1 µM.
As to `Cc1nsc(Nc2cncc(C(F)(F)F)n2)c1C(=O)Nc1ccc(OC2CCN(CCF)CC2)c(F)c1` [Example 223, N-(3-fluoro-4-{[1-(2-fluoroethyl)piperidin-4-yl]oxy}phenyl)-3-methyl-5-{[6-(trifluoromethyl)pyrazin-2-yl]amino}-1,2-thiazole-4-carboxamide], the IC50 amounted to 0.76 µM in the assay on HeLa and 0.18 µM in assay [1].
Taken in the same sequence, the figures for `Cc1nsc(Nc2cnc3ccccc3n2)c1C(=O)Nc1ccc(NC(=O)C(C)(C)C)cc1` [Example 185, N-{4-[(2,2-dimethylpropanoyl)amino]phenyl}-3-methyl-5-(quinoxalin-2-ylamino)-1,2-thiazole-4-carboxamide] were greater than 10 µM and 1.6 µM.
Taken in the same sequence, the figures for `Cc1nsc(Nc2cncc(C(F)(F)F)n2)c1C(=O)Nc1ccc(OC2CCN(C(C)C)CC2)nc1` [Example 218, N-{6-[(1-isopropylpiperidin-4-yl)oxy]pyridin-3-yl}-3-methyl-5-{[6-(trifluoromethyl)pyrazin-2-yl]amino}-1,2-thiazole-4-carboxamide] were 9.9 µM and 0.38 µM.
